Data on two compounds can be found in doi:10.1101/2025.08.13.670122v1 (bioRxiv, 2025).

Where two headings read alike, the source gives them in different places. Where only a bound is given, the exact number is not on record here.

This assay deals with T1, endogenous AT1R (Rattus norvegicus, UniProt P25095).
T1 construct: expressing low levels of endogenous AT1R; endogenous in cells; host or cells: rat primary VSMC, passages 13-15
T1 sequence (P25095 1-359): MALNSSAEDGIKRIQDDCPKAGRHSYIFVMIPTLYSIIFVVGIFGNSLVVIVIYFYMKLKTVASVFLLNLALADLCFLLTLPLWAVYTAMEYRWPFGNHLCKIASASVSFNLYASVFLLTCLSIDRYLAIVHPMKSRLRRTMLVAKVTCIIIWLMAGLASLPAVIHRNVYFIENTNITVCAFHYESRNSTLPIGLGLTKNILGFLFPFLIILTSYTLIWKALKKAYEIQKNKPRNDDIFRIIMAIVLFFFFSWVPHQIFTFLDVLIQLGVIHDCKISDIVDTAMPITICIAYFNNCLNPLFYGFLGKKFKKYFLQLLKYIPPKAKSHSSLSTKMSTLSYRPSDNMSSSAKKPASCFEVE
The assay can be described thus: PKC BRET sensor in rat primary VSMC with endogenous AT1R. Type of assay: cell-based. To be noted: for Emax PKC in VSMCs (% AngII): PKC sensor, for 12 and TRV027 response at 10 μM; for EC50: adenoviral PKC BRET sensor, 1 min stimulation, mean ± SEM of at least three to five independent experiments, read-out: EC50 PKC in VSMCs. An excerpt:
We next assessed the analogs’ ability to engage Gαq by assessing either the PKC or Rho responses in rat primary vascular smooth muscle cell (VSMC) culture, expressing low levels of endogenous AT1R (between 25–50 fmol/mg) (Figure 4, Table 6).
The coding regions of the PKC-c1b sensor, PKN-RBD-RlucII, and rGFPcaax were PCR-amplified and subcloned into the KpnI/XhoI sites of the pENTR3C vector (Invitrogen), respectively. These were then transferred into the adenoviral expression vector pAd/CMV/V5-DEST (Invitrogen), via gateway cloning (pAD-CMV-PKC-c1b, pAD-CMV-PKN-RBD-RLucII, and pAD-CMV-rGFPcaax). Viruses containing the sensor codes were generated following a previously outlined process.[49] […] The following day, cells were transfected with 4 µg of PacI-digested pAd5-CMVsensors using Lipofectamine 2000 (Invitrogen). After 7–10 days post-transfection, mature virus particles were gleaned via the collection of cells and media, which then underwent multiple cycles of freezing and thawing, followed by centrifugation. The harvested virus was amplified by re-infection on 100-mm dishes of confluent HEK293A cells, and harvested 48-72 h later. Viral titers were determined by serial dilution of adenovirus stock and subsequent infection of HEK293A cells in 96-well plates. 36 h after infection, cells were stained using an anti-hexon antibody (ab8249; Abcam), and hexon-expressing cells were tallied via fluorescence microscopy. The virus was then stored at −80°C. After this, rat VSMCs (between the 13th to 15th passages) were seeded at a density of 20,000 cells in each well of white 96-well plates 24 h before transduction with the viral vector. The cells were then transduced with the PKC sensor-adenovirus (3 μL per well) or Rho sensor (1 μL each per well of PKN-RBD-RLucII-adnovirus and rGFP-caax adenovirus). After 24 h, the medium was replaced. 48 h post-viral transduction, the cells were thoroughly washed with Tyrode’s buffer. Finally, BRET assays were carried out as detailed below.
On the day of the experiment, each well was washed with 80 µL of Tyrode’s buffer (140 mM NaCl, 2.7 mM KCl, 1 mM CaCl2, 12 mM NaHCO3, 5.6 mM D-glucose, 0.5 mM MgCl2, 0.37 mM NaH2PO4, 25 mM Hepes (pH 7.4)). This was followed by incubation for 1 h in Tyrode’s buffer at room temperature. For the Gαq, β-arrestin-2, and PKC biosensors used in HEK293 cells, coelenterazine 400A (at a final concentration of 5 μM) was added 10 min before stimulation. Cells were then stimulated with increasing doses of the indicated ligand, and BRET signals were measured using a Tristar2 (Berthold) microplate reader 10 min later. For the PKC and Rho biosensors in VSMCs, and the Rho biosensor in ΔG12/13 cells, cells were similarly stimulated with ligands for 1 min, 1 min 30 s, and 3 min, respectively, before BRET measurement. […] BRET signals were then measured using a Synergy2 (BioTek) microplate reader. The applied filter set was 410/80 nm and 515/30 nm, designed to detect the light emissions of RlucII (Renilla luciferase) (donor) and rGFP (acceptor), respectively.
On the technique in general: Bioluminescence resonance energy transfer reports proximity on the nanometre scale.

In the case of `CC[C@H](C)[C@H](NC(=O)[C@H](Cc1ccc(O)cc1)NC(=O)[C@@H](NC(=O)[C@H](CCCNC(=N)N)NC(=O)[C@@H](N)CC(=O)O)C(C)C)C(=O)N[C@@H](Cc1c[nH]cn1)C(=O)N1CCC[C@H]1C(=O)N[C@@H](Cc1ccc(OC)cc1)C(=O)O` [compound 11], the “Emax PKC in VSMCs (% AngII)” value was 104 % AngII. Further, for the setting “SEM”, the EC50 – broadly, the midpoint of the concentration-response curve – came to 79.8 ± 17.7 nM.

`CC[C@H](C)[C@H](NC(=O)[C@H](Cc1ccc(O)cc1)NC(=O)[C@@H](NC(=O)[C@H](CCCNC(=N)N)NC(=O)[C@@H](N)CC(=O)O)C(C)C)C(=O)N[C@@H](Cc1c[nH]cn1)C(=O)N1CCC[C@H]1C(=O)N[C@@H](Cc1ccc(OCc2ccccc2)cc1)C(=O)O` [compound 12]: the “Emax PKC in VSMCs (% AngII)” value is listed as 13 % AngII and the EC50 was > 10000 nM.
